The values below come from patent US20100204129A1, “USE OF A PEPTIDE AS A THERAPEUTIC AGENT” (priority 2008, published 2010).

A word on the viability: it is a read-out of living cells in per cent, often relative to untreated cells.

In series [1] the test system is HIV-1IIIB. Nature of the series: HIV-1 antiviral assay (CPE reduction, MTS). Particulars: peptide 10 micrograms per ml, 6 days post-infection. The format is cell-based.
In series [2] the test system is A549 cells. Nature of the series: Propidium iodide cell cycle assay. The class given is cell-based, human. Particulars: peptide 10 micrograms per ml, 24 hours, FACS. The source says: Human A549 cells (carcinomic human alveolar basal epithelial cells) were utilized in the experiments employing the Propidium iodide cell cycle assay. The eukaryotic cell cycle is a series of events that take place in a cell leading to its replication. The regulation of the cell cycle involves steps crucial to the cell, including detecting and repairing genetic damage, and provision of various checks to prevent uncontrolled cell division. The molecular events that control the cell cycle are ordered and directional; that is, each process occurs in a sequential fashion. The cell cycle consists of four distinct phases: G1 phase, S phase, G2 phase (collectively known as interphase) and M phase. M phase is itself composed of two tightly coupled processes: mitosis, in which the cell's chromosomes are divided between the two daughter cells, and cytokinesis, in which the cell's cytoplasm divides forming distinct cells. Activation of each phase is dependent on the proper progression and completion of the previous one. Cells that have temporarily or reversibly stopped dividing are said to have entered a state of quiescence called Go phase. The relatively brief M phase consists of nuclear division and cytoplasmic division. The first phase within interphase, from the end of the previous M phase till the beginning of DNA synthesis is called G1 (G indicating gap or growth). During this phase the biosynthetic activities of the cell resume at a high rate. This phase is marked by synthesis of various enzymes that are required in S phase, mainly those needed for DNA replication. The ensuing S phase starts when DNA synthesis commences; when it is complete, all of the chromosomes have been replicated. The cell then enters the G2 phase, which lasts until the cell enters mitosis. Significant protein synthesis occurs during this phase, mainly involving the production of microtubules, which are required during the process of mitosis. […]
Propidium iodide is an intercalating agent and a fluorescent molecule that can be used to stain DNA. […] After incubation for 40 min at 37° C., cells were analyzed in the FACS.

Series [3] has as its system Human Peripheral Blood Mononuclear Cells (PBMC). The series can be described thus: B cell proliferation assay (SAC plus Interleukin-2, 3H-thymidine). The conditions noted are these: peptide 10 micrograms per ml, 3H-thymidine incorporation. The class given is cell-based. How it is done: Human Peripheral Blood Mononuclear Cells (PBMC) were obtained from normal human donors. The B cell proliferation was induced by stimulation of the cells with the B cell mitogen Staphylococcus aureus Cowans I (SAC) plus Interleukin-2, either in the absence (positive proliferation control), or in the presence of test peptide—10 micrograms per ml—to examine their effects on the B cell response. 10^5/well PBMC were plated in 96-well microtiter plates and assayed in duplicate with the peptide. Cell cultures were incubated at 37° C. for 3 days in a 5% CO2 incubator and were thereafter pulsed with 1 microCi/well ^3H-thymidine for additional 12 hours of culture. At the end of incubation time, the plates were harvested and the cells counted by liquid scintillation for the incorporation of ^3H-thymidine as a measure of B cell proliferation.
In general terms: Incorporation of labelled thymidine or its analogues reports DNA synthesis.

Series [4] concerns RAW 264.7 cells. The series can be described thus: Phagocytosis assay (Fluorescein-labeled Escherichia coli, flow cytometry). The format is cell-based, mouse. The conditions noted are these: peptide 10 micrograms per ml, 30 min preincubation, 60 min ingestion. How it is done:
RAW 264.7 (Mouse leukaemic monocyte macrophage cell line) cells were obtained from ATCC and grown in RPMI 1640 medium containing 10% FBS. Cells were incubated in 12×75 mm tubes at 37° C. with test peptide—10 micrograms per ml—for 30 min prior to adding Fluorescein-labeled Escherichia coli bacteria as the agent to be ingested. After the cells were incubated for additional 60 min at 37° C. and allowed to ingest the Fluorescein-labeled Escherichia coli bacteria, cells were fixed with 1% paraformaldehyde. The samples were then analyzed by flow cytometry to determine the amount of phagocytosis as a function of brightness (the greater the phagocytic activity, the more fluorescence in the macrophage population). Data are reported as % positive and the mean fluorescence intensity (MFI) of positively stained cells.

The subject of series [5] is A549 cells. Nature of the series: Apoptosis induction assay (Annexin-5). The format is cell-based, human. Particulars: apoptosis induction in A549 cells, 24 hours exposure. An excerpt: Human A549 cells (carcinomic human alveolar basal epithelial cells) were utilized in the experiments employing the Annexin-5 apoptosis assay. Annexin-5 is a member of a highly conserved protein family that binds acidic phospholipids in a calcium-dependent manner. […] Phosphatidylserine is translocated from the inner side of the plasma membrane to the outer layer when cells undergo death by apoptosis or cell necrosis and serves as a signal by which cell destined for death are recognized by phagocytes. Test peptide—[…]—were exposed for 24 hours to the A549 cells before they were analyzed for signs of apoptosis.

For series [6], the system named is A549 cells. Nature of the series: Apoptosis prevention assay (C2 ceramide, Annexin-5). The class given is cell-based, human. Particulars: A549 cells pretreated 30 min with peptide 10 micrograms per ml, then C2 ceramide. The source says: Human A549 cells (carcinomic human alveolar basal epithelial cells) were utilized in the experiments employing the Annexin-5 apoptosis assay. Annexin-5 is a member of a highly conserved protein family that binds acidic phospholipids in a calcium-dependent manner. […] Phosphatidylserine is translocated from the inner side of the plasma membrane to the outer layer when cells undergo death by apoptosis or cell necrosis and serves as a signal by which cell destined for death are recognized by phagocytes. A549 cells were pretreated for 30 min with test peptide—10 micrograms per ml—followed by the exposure to C2 ceramide. Ceramide mediates cell apoptosis through the activation of the mitogen activating protein kinase (MAPK) and the stress activated kinase (JNK/SAPK). C2 ceramide is a synthetic, membrane soluble analog of ceramide.

Series [7] has as its system HUVEC. Nature of the series: Endothelial tube formation assay. The class given is cell-based, human. The conditions noted are these: peptide 10 micrograms per ml, 20 hours. How it is done:
The endothelial tube formation assay is based on the ability of endothelial cells to form three-dimensional capillary-like tubular structures when cultured on a gel of basement membrane extract. The endothelial tube formation assay represents a powerful model for studying inhibition and induction of angiogenesis. Pre-labeled HUVEC with Calcein AM were seeded in a 96-well culture plate coated with extracellular metrix (Chemicon international Cat. ECM625) and treated with test peptide—10 micrograms per ml—in full growth medium. […] control was vehicle only. The endothelial cells were allowed to form tubes for 20 hours and were then examined under an inverted fluorescent microscope. Duplicate wells for each treatment were photographed and quantitatively analyzed for an average tubule length using image analysis software ImageProPlus. Raw data were expressed as average tubule lengths in pixels ±standard deviation. Statistic p values were computed using the Student's t-test.

Series [8] in a line: in vitro. Particulars: human.
Series [9] has as its system HCMV strain AD169. Nature of the series: HCMV plaque reduction assay in MRC-5 cells. The conditions noted are these: HCMV in MRC-5 cells; peptide 10 micrograms per ml; 7-10 days.

Non-standard residues stand in square brackets, D forms with d. Residues, ends and D or L forms follow the SMILES beside them.

Take `CC(C)C[C@H](NC(=O)[C@H](CC(C)C)NC(=O)[C@@H](Cc1c[nH]c2ccccc12)NC(=O)[C@H](Cc1ccccc1)NC(=O)[C@@H](Cc1c[nH]c2ccccc12)NC(=O)[C@H](CCC(N)=O)NC(=O)[C@H](CCC(N)=O)NC(=O)[C@@H]1CCCN1C(=O)[C@H](CCCCN)NC(=O)[C@@H]1CCCN1C(=O)[C@@H](CCCNC(=N)N)NC(=O)[C@@H]1CCCN1C(=O)CNC(=O)[C@H](CC(C)C)NC(=O)[C@H](CC(C)C)NC(=O)[C@H](Cc1ccc(O)cc1)NC(=O)CNC(=O)[C@H](C)NC(=O)[C@H](CO)NC(=O)[C@H](CC(N)=O)NC(=O)[C@H](CC(C)C)NC(=O)[C@@H](NC(=O)[C@H](Cc1c[nH]c2ccccc12)NC(=O)CN)[C@@H](C)O)C(N)=O` [Spantide-I, Gly-Trp-Thr-Leu-Asn-Ser-Ala-Gly-Tyr-Leu-Leu-Gly-Pro-D-Arg-Pro-Lys-Pro-Gln-Gln-D-Trp-Phe-D-Trp-Leu-Leu-NH2] (H-GWTLNSAGYLLGP[dR]PKPQQ[dW]F[dW]LL-NH2): the “% CPE reduction in HIV-1 infected CEM-SS cells” value in series [1] was 0.0%. In [2], the “Cell cycle analysis G0/G1” value came out at 61.6, the “Cell cycle analysis G2/M” value was determined as 7.7 and the “Cell cycle analysis S” value is on record as 30.7. Also, the “% of SAC/IL2 induced control” value in [3] stood at 106.6%. Also, the “% of control phagocytosis” value in series [4] came to 102.9%. In series [5], the “% of induction” value came out at 1.4%. In series [6], the “% prevention of ceramide induced apoptosis” value was −20.5%. For the same molecule, in series [7], the “% inhibition of tube formation” value is 1%. The viability at 144 h, 10 micrograms per ml in series [8] was found to be 100%. In addition, the “% plaque reduction” value in series [9] came out at 0.0%.
